Laboratory results: patent publication US7166636B2, “Indole-amid derivatives which possess glycogen phosphorylase inhibitory activity” (AstraZeneca AB, priority 2002, dated 2007)

Assays:
conscious dogs = settings: following a glucagon challenge; cited from earlier work
[1] = target: T1, Human recombinant liver glycogen phosphorylase a (hrl GPa) (Homo sapiens, UniProt P06737); assay: Glycogen phosphorylase a inhibition, glycogen degradation, multienzyme coupled assay (NADH fluorescence); format: biochemical; settings: hrl GPa 20 nM, 6 hours at 30° C.
T1 sequence (P06737 1-847): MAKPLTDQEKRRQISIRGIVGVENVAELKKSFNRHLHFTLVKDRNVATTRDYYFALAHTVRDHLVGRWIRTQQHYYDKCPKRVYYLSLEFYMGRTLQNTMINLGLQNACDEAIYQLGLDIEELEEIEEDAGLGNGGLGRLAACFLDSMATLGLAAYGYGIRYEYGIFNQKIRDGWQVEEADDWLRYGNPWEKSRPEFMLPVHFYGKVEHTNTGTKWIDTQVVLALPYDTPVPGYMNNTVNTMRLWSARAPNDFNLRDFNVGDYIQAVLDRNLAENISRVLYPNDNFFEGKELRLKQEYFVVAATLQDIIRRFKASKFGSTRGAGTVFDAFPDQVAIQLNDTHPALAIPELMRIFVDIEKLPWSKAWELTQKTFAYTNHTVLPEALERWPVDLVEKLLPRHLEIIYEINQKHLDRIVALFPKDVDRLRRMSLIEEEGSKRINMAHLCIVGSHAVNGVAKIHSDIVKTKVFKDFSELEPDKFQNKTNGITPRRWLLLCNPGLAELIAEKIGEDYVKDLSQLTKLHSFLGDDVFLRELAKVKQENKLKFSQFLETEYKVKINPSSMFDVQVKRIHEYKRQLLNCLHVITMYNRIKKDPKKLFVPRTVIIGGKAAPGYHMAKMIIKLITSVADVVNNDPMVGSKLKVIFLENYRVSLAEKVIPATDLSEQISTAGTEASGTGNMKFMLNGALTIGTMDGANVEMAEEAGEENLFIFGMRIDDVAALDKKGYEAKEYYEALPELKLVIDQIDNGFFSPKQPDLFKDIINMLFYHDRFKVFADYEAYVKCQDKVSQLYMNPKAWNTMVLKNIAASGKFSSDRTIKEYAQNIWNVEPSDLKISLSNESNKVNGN
Description: The activity of the compounds is alternatively determined by measuring the inhibitory effect of the compounds on glycogen degradation, the production of glucose-1-phosphate from glycogen is monitored by the multienzyme coupled assay, as described in EP 0 846 464 A2, general method of Pesce et al (Pesce, M A, Bodourian, S H, Harris, R C, and Nicholson, J F (1977) Clinical Chemistry 23, […]). The reactions were in 384 well microplate format in a volume of 50 μl. The change in fluorescence due to the conversion of the co-factor NAD to NADH is measured at 340 nm excitation, 465 nm emission in a Tecan Ultra Multifunctional Microplate Reader. The reaction is in 50 OmM HEPES, 3.5 mM KH2PO4, 2.5 mM MgCl2, 2.5 mM ethylene glycol-bis(b-aminoethyl ether) N,N,N′,N′-tetraacetic acid, 100 mM KCl, 8 mM D-(+)-glucose pH7.2, containing 0.5 mM dithiothreitol, the assay buffer solution. Human recombinant liver glycogen phosphorylase a (hrl GPa) 20 nM is pre-incubated in assay buffer solution with 6.25 mM NAD, 1.25 mg type III glycogen at 1.25 mg ml^−1 the reagent buffer, for 30 minutes. […] The non-inhibited activity of GPa is measured in the presence of 10 μl 5% DMSO in assay buffer solution and maximum inhibition measured in the presence of 5 mgs ml^−1 N-ethylmaleimide. […] Relative Fluoresence Units (RFUs) are measured at 340 nm excitation, 465 nm emission. […]

hepatocytes = settings: cited from earlier work; for glucose output: glucagon stimulated
db/db and ob/ob mice = db/db and ob/ob mice following treatment; cited from earlier work

IC50 [1] [nM] | SMILES | arterial plasma glucose (conscious dogs) | hepatic glucose output (conscious dogs) | glucagon stimulated glycogenolysis (hepatocytes) | glucose output (hepatocytes) | plasma glucose concentration (db/db and ob/ob mice)
– | CCN1C(C)=C(C(=O)OC(C)C)C(c2ccccc2Cl)C2=C1COC2=O (stereo not drawn) [Bay R 3401] | reduced significantly | reduced significantly | – | – | –
2400 | COC(=O)c1ncoc1[C@H](Cc1ccccc1)NC(=O)c1cc2cc(Cl)ccc2[nH]1 [Example 1, Methyl (S)-5-{1-[(5-chloro-1H-indol-2-ylcarbonyl)amino]-2-phenylethyl}oxazole-4-carboxylate] | – | – | – | – | –
– | CN(C)C(=O)[C@H](O)[C@H](Cc1ccccc1)NC(=O)c1cc2cc(Cl)ccc2[nH]1 [CP91149] | – | – | reduce | reduce | reduced, in a dose related manner
– | O=C(N[C@@H](Cc1ccc(F)cc1)C(=O)N1CCC(O)CC1)c1cc2cc(Cl)ccc2[nH]1 [CP320626] | – | – | reduce | reduce | reduced, in a dose related manner
